The values below come from ChEMBL document CHEMBL5696442, “Discovery of type II inhibitors of TGFβ-activated kinase 1 (TAK1) and mitogen-activated protein kinase kinase kinase kinase 2 (MAP4K2)” (J Med Chem, 2015).

The structures appear in SMILES notation.

Test [1] concerns the target T1, Serine/threonine-protein kinase Chk1 (Homo sapiens) (UniProt O14757).
T1 sequence (whole entry): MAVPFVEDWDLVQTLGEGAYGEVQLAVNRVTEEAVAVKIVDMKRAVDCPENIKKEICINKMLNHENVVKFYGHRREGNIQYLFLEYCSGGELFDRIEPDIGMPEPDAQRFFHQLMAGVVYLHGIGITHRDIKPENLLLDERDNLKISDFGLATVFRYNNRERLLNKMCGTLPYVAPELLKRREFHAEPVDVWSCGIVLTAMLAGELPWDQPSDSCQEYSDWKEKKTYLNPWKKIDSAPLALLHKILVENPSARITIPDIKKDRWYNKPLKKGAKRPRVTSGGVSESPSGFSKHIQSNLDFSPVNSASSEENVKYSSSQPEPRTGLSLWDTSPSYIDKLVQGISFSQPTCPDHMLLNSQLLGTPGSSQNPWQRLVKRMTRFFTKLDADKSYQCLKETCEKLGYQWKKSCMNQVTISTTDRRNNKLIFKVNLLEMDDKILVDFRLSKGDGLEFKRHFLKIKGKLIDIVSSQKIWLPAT
Description: Inhibition of CHK1 in human Huh-7 cell lysate at 1 uM by KiNativ Profiling analysis relative to control. The format is subcellular.

In test [2] the target is T2, Serine/threonine-protein kinase TAO2 (Homo sapiens) (UniProt Q9UL54).
T2 sequence (whole entry): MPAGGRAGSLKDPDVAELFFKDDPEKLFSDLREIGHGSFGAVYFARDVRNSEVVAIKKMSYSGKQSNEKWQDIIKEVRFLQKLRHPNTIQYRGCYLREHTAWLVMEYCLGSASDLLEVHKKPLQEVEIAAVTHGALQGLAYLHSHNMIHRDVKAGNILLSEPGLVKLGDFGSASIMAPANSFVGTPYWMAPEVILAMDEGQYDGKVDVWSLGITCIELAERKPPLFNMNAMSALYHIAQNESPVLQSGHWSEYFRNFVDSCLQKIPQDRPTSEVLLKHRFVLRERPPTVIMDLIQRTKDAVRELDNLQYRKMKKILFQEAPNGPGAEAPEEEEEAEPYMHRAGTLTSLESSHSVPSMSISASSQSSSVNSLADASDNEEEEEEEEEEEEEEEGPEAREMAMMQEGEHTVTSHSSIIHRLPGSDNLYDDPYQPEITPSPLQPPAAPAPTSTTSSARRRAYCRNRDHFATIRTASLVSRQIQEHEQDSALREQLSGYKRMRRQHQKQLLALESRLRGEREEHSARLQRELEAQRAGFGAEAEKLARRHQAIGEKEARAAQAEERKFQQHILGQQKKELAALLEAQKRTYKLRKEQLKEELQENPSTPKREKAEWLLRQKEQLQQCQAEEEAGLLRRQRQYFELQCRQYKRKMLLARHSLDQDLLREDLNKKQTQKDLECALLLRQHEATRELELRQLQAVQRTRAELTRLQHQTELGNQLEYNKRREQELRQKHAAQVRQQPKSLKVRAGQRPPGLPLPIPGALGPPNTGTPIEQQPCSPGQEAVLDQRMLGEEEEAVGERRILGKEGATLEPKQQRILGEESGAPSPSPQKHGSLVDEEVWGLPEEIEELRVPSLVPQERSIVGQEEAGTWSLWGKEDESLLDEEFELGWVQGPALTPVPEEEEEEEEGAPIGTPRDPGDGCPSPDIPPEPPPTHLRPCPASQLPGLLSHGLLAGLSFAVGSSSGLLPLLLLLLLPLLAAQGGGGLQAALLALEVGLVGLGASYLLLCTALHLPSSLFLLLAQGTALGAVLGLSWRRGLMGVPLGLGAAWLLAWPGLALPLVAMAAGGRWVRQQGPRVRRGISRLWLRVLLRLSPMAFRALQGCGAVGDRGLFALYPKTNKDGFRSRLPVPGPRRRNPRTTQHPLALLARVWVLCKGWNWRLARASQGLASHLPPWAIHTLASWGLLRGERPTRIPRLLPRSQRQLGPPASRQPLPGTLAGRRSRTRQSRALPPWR
Description: Inhibition of TAO2 Lys2 labeling site in human Huh-7 cells at 1 uM by KiNativ Profiling analysis relative to control. The format is cell-based.

Test [3] addresses Serine/threonine-protein kinase B-raf (Homo sapiens, UniProt P15056). Description: Inhibition of BRAF K2 labeling site in human Huh-7 cells at 1 uM by KiNativ Profiling analysis relative to control. The class given is cell-based.
The target of test [4] is T3, Mitogen-activated protein kinase kinase kinase kinase 2 (Homo sapiens) (UniProt Q12851).
T3 sequence (whole entry): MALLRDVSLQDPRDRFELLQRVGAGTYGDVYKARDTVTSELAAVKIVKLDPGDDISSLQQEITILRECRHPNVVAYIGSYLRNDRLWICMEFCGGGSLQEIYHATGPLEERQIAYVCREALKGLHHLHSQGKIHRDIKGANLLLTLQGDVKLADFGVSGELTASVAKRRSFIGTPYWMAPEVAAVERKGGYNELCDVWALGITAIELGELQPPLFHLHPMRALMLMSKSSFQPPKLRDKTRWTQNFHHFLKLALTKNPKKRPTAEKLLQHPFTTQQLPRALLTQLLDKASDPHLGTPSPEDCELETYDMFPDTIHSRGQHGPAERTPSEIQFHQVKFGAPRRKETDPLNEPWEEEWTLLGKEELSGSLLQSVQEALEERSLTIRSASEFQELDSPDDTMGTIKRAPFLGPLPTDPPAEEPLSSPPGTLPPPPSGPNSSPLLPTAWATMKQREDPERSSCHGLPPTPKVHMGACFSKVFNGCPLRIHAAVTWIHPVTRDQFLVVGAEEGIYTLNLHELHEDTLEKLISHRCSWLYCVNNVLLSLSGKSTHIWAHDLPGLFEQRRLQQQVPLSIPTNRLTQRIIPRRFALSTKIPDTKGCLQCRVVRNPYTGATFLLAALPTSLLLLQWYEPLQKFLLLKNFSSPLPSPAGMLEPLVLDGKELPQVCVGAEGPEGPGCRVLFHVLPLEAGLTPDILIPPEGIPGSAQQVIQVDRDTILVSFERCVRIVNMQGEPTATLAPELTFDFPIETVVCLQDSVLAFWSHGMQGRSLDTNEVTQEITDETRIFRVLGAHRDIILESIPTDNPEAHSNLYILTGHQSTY
The experiment in a line: Inhibition of MAP4K2 (GCK) Lys1 labeling site in human A-375 cells at 0.5 uM by KiNativ Profiling analysis relative to control. The class given is cell-based.

Chain of Serine/threonine-protein kinase B-raf (P15056 whole entry): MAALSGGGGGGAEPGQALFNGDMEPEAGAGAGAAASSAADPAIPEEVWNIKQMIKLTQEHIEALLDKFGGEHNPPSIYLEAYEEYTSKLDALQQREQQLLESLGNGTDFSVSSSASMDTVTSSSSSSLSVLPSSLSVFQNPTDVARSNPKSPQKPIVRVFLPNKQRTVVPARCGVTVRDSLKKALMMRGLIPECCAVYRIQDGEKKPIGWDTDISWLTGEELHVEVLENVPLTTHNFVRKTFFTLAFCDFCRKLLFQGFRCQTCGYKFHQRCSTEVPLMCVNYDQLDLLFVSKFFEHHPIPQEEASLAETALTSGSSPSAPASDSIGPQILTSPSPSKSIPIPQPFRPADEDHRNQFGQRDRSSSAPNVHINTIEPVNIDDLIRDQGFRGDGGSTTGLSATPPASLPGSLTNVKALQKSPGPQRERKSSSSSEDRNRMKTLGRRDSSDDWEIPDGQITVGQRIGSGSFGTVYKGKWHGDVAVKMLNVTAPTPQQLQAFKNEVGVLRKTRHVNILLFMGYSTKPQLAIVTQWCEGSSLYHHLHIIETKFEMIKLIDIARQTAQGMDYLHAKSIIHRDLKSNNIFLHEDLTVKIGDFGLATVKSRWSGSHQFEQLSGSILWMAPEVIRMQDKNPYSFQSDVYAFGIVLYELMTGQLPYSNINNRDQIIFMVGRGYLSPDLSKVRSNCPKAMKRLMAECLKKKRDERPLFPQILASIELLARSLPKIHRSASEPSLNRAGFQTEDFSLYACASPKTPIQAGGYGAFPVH

As a reminder, the inhibition is the share of the control response that was lost under treatment. Read a low inhibition as little suppression. Take `CNc1cc(Oc2cc(C(=O)Nc3cc(N4CCN(C)CC4)cc(C(F)(F)F)c3)ccc2C)ncn1`: the inhibition in test [1] is 0.5%; in test [2], 35.6%.
Regarding `CCN1CCN(Cc2ccc(NC(=O)c3ccc(C)c(Oc4ccnc5[nH]ccc45)c3)cc2C(F)(F)F)CC1`, the inhibition in test [3] was 1.7%; in test [4], above 99.5%.
